Structures are written as SMILES.

The experiment concerns MCF-7 cells. In words: CD44+ CD24− CSC population in MCF-7 tumoroids by flow cytometry. The class given is cell-based, human. The settings on record: regular growth medium supplemented with 50 μM cobalt chloride, first-generation MCF-7 tumoroids, day 6. The method, then:
We first plated MCF-7 cells in regular growth medium, consisting of RPMI-1640 supplemented with 10% fetal bovine serum (FBS) and 1× penicillin-streptomycin. The cells were plated at ^˜7,000 cells per scaffold in a 96-well cell culture plate. Fresh medium was added on the second day post-seeding and on day 6 post-seeding, the tumoroids were visualized using NucBlue® dye. After confirming the presence of healthy looking tumoroids, they were detached from the scaffold and processed for single cell suspensions using accutase:citrate solution (1:1 ratio). The single cell suspension was then counted for viability and stained with human anti-CD44-APC-cy7 and anti-CD24-APC. DAPI was used to differentiate the live cells within the single cell population and the CD44^+ CD24^− cell population was determined from the live cells using flow cytometry.
We first grew first-generation tumoroids, as described before. The first-generation tumoroids were then processed for single-cell suspensions and plated at ^˜8,000 cells per scaffold in a 96-well cell culture plate. […]
Because hypoxia appears to be required for the maintenance of CSCs, we wanted to test this in our 3D model using cobalt chloride, a known inducer of hypoxia. […] DAPI was used to differentiate the live cells within the single-cell population and the CD44^+ CD24^− cell population was determined using flow cytometry. […]

On to `[Cl][Co][Cl]` [cobalt chloride], for which the “change in percentage of CSCs” value is “did not change the percentage of CSCs”.
